# Measured values: PMC5762309 (Oncotarget, 2017)
# Experiments:
# Assay type in all cases: cell-based
# Settings in all cases: Mus musculus, 72 hours, CellTiter-Glo
# BaF3-tel-KIT-V654A = assay: Anti-proliferation assay, transformed BaF3 cells
# Text: (§1) Retroviral constructs for BaF3-KIT mutants were made based on the pMSCVpuro (Clontech) backbone. For TEL-KIT vector, the first 1 kb of human TEL gene with an artificial myristoylation sequence ([…]) was cloned into the pMSCVpuro retroviral vector, followed by a 3xFLAG tag sequence. Then, the kinase domain coding sequence of KIT was inserted in-frame between TEL and 3xFLAG sequences. For full-length expression vectors, the coding sequences of KIT variants were directly cloned in pMSCVpuro vector with a 3xFLAG tag at the C-terminal end. All mutagenesis was performed using the QuikChange Site-Directed Mutagenesis Kit (Stratagene) following the manufacturer’s instructions. Retrovirus was packaged in HEK293T cells by transfecting KIT-containing MSCV vectors together with two helper plasmids. Virus supernatants were harvested 48 h after transfection and filtered before infection. Then BaF3 cells were infected with harvested virus supernatants using spinoculation protocol, and stable cell lines were obtained by puromycin selection for 48 h. The IL-3 concentrations in the culture medium were gradually withdrawn until cells were able to grow in the absence of IL-3.
# (§2) Cells were grown in 96-well culture plates (2500/well). The compounds of various concentrations were added into the plates. Cell proliferation was determined after treatment with compounds for 72 hours. Cell viability was measured using the CellTiter–Glo assay (Promega, USA), according to the manufacturer’s instructions, and luminescence was measured in a multi-label reader (Envision, PerkinElmer, USA). Data were normalized to control groups (DMSO) and represented by the mean of three independent measurements with standard error <20%. GI50 values were calculated using Prism 5.0 (GraphPad Software, San Diego, CA).
# BaF3-tel-KIT-T670I-V559D = assay: Anti-proliferation assay, transformed BaF3 cells
# Text: as §1, §2
# BaF3-tel-KIT-A829P = assay: Anti-proliferation assay, transformed BaF3 cells
# Text: as §1, §2
# BaF3-tel-KIT = assay: Anti-proliferation assay, transformed BaF3 cells
# Text: as §1, §2
# BaF3-tel-KIT-V559D = assay: Anti-proliferation assay, transformed BaF3 cells
# Text: as §1, §2
# BaF3-tel-KIT-N822K = assay: Anti-proliferation assay, transformed BaF3 cells
# Text: as §1, §2
# BaF3-tel-KIT-T670I = assay: Anti-proliferation assay, transformed BaF3 cells
# Text: as §1, §2
# BaF3-tel-KIT-L576P = assay: Anti-proliferation assay, transformed BaF3 cells
# Text: as §1, §2
# BaF3-tel-KIT-D816V = assay: Anti-proliferation assay, transformed BaF3 cells
# Text: as §1, §2
# BaF3-tel-KIT-V559D-V654A = assay: Anti-proliferation assay, transformed BaF3 cells
# Text: as §1, §2
# BaF3 = assay: Anti-proliferation assay, parental BaF3 cells
# Method: The KIT mutant isogenic BaF3 cells lines and Colo320DM cells were cultured in RPMI 1640 media (Corning, USA) with 10% fetal bovine serum (FBS) and supplemented with 2% L-glutamine 1% penicillin/streptomycin, the BaF3 cell line was cultured in RPMI 1640 media (Corning, USA) with 1% IL-3, 10% fetal bovine serum (FBS) and supplemented with 2% L-glutamine 1% penicillin/streptomycin. All cell lines were maintained in culture media at 37°C with 5% CO2.
smiles,measurement,setting,value
"CCN(CC)CCNC(=O)c1c(C)[nH]c(/C=C2\C(=O)Nc3ccc(F)cc32)c1C [Sunitinib, reference compound]",GI50,BaF3-tel-KIT-V654A,2 nM
same,GI50,BaF3-tel-KIT-T670I-V559D,7 nM
same,GI50,BaF3-tel-KIT-A829P,130 nM
same,GI50,BaF3-tel-KIT,60 nM
same,GI50,BaF3-tel-KIT-V559D,< 0.3 nM
same,GI50,BaF3-tel-KIT-N822K,120 nM
same,GI50,BaF3-tel-KIT-T670I,1 nM
same,GI50,BaF3-tel-KIT-L576P,3 nM
same,GI50,BaF3-tel-KIT-D816V,420 nM
same,GI50,BaF3-tel-KIT-V559D-V654A,6 nM
same,GI50,BaF3,1300 nM
